For 31 compounds, GI50 and TGI results are on record in PubChem BioAssay (NCI).

The structures appear in SMILES notation.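 Values below derive from 48-hour exposures of cells grown in 96-well plates, with endpoints linearly interpolated between the two concentrations bracketing the appropriate inhibition level. GI50 = concentration required for 50% inhibition of growth. TGI denotes the concentration required for complete inhibition of growth.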

The assay concerns MDA-MB-468 breast. The assay is described as follows: NCI-60 cell line screen, 48 h.
For the compound `C[C@@H](C[C@H](CCO)c1ccccc1)c1ccc2ccccc2c1`, the GI50 is 1530 nM and the TGI was 2980 nM.

As for `CS(=O)(=O)CCNCc1ccoc1-c1ccc2ncnc(Nc3ccc(OCc4ccccc4)cc3)c2c1`, the GI50 is 506 nM and the TGI was 4490 nM.

In the case of `C[C@@H]1Cc2c(ccc3[nH]ncc23)[C@@H](c2ccc(NC3CN(CCCF)C3)cn2)N1CC(F)(F)F`, the GI50 is 13400 nM and the TGI stood at 27800 nM.

Regarding `COC(=O)Nc1nc2ccc(C(=O)c3cccs3)cc2[nH]1`, the GI50 was 161 nM and the TGI is above 100000 nM.

In the case of `CSc1nc2ccc(C)cc2cc1/C=C1/C=C(c2ccccc2)NC1=O`, the GI50 is 5770 nM and the TGI was 61300 nM.

Regarding `COc1ccc(S(=O)(=O)Nc2cc(Sc3cccc4cccnc34)c(O)c3ccccc23)cc1`, the GI50 is 1150 nM and the TGI was 3120 nM.

With `COc1ccc(F)cc1-c1ccnc2[nH]c(C3=CCN(C4CCC(CC(=O)O)CC4)CC3)cc12` (configuration not stated), the GI50 is 77.9 nM and the TGI stood at 444 nM.

Take `N=C1C=C(N)C(=O)c2ccccc21`: the GI50 was 112 nM and the TGI amounted to 248 nM.

Consider `CC1=C(SCCC(=O)OC(C[Se]C2=C(C)C(=O)c3ccccc3C2=O)C(=O)NC(C)(C)C)C(=O)c2ccccc2C1=O` (configuration not stated), for which the GI50 is 226 nM and the TGI was found to be 657 nM.

With `Cc1nc2sc(C(=O)Nc3ccccc3)c(N)c2cc1C(=O)c1ccccc1`, the GI50 was 2590 nM and the TGI turned out to be 28900 nM.

In the case of `Cn1cc(-c2csc(-c3cn(C(=O)OC(C)(C)C)c4ccccc34)n2)c2cccnc21`, the GI50 is 865 nM and the TGI came to 12300 nM.

With `c1ccc(-c2cc3n4c(-c5ccccc5)nn(-c5ccccc5)c4cnc-3n2)cc1`, the GI50 was 4380 nM and the TGI is above 50000 nM.

With `COC(=O)c1cc(C)[nH]c2c(C)cc3nc4ccccc4c3c12`, the GI50 was 3760 nM and the TGI was 12300 nM.

Turning to `COC(=O)[C@@H](C)C[C@H](Cc1ccccc1)NC(=O)c1csc([C@@H](C[C@H](C(C)C)N(C)C(=O)[C@@H](NC(=O)[C@H]2CCCCN2C)C(C(F)(F)F)C(F)(F)F)OC(C)=O)n1`, the GI50 is 21.3 nM and the TGI is above 16700 nM.

As for `CN(C)CCOc1ccc2c(c1)C(=O)/C(=C\c1ncc([N+](=O)[O-])n1C)C2`, the GI50 was 188 nM and the TGI came out at 516 nM.

As to `O=S(=O)(Nc1ccc(Cl)c(Cl)c1)c1ccc(-c2cnc(C3CC3)o2)cc1`, the GI50 was 222 nM and the TGI worked out at 736 nM.

In the case of `CC[C@@H](C(=O)[C@@H](C)[C@@H](O)[C@H](C)[C@@H]1O[C@@H]([C@@H](CC)C(=O)O)CC[C@@H]1C)[C@H]1O[C@]2(C=C[C@@H](O)[C@]3(CC[C@@](C)([C@H]4CC[C@](O)(CC)[C@H](C)O4)O3)O2)[C@H](C)C[C@@H]1C`, the GI50 was 197 nM and the TGI amounted to 2440 nM.

On to `COc1ccc(C2C3=C(COC3=O)N(CCO)c3cc4c(cc32)CCC4)cc1` (configuration not stated), for which the GI50 is 1360 nM and the TGI turned out to be 5330 nM.

On to `C=Cc1cc(OC)c2c(c1)c(=O)oc1c2cc(OC)c2c(O)ccc(C3OC(C(C)O)C(O)C3O)c21` (configuration not stated), for which the GI50 was 4.91 nM and the TGI is above 1000 nM.

On to `COc1cc2c(=O)n(CC3CCCCC3)c3c4cc[nH]c4ncc3c2cc1OC`, for which the GI50 is 4610 nM and the TGI was found to be 25600 nM.

With `c1ccc2c(NCCCN3CCOCC3)c3oc4ccccc4c3nc2c1`, the GI50 was 1360 nM and the TGI was determined as 3400 nM.

For `CC(C)(C)c1ccc(CC(=O)Nc2sc3c(c2C(N)=O)CCC(=O)C3)cc1`, the GI50 is 1380 nM and the TGI was 3720 nM.

`Cc1c2ccccc2c(C)n2c1nc1cc(Cl)c(Cl)cc12`: the GI50 is 27600 nM and the TGI is above 100000 nM.

For `CC(C)(C)CC(C)(C)NCC(O)COc1ccc(C(C)(C)c2ccc(OCC(O)CNC(C)(C)CC(C)(C)C)cc2)cc1` (configuration not stated), the GI50 was 1310 nM and the TGI is 2770 nM.

Regarding `CCOC(=O)N(O)c1ccc(/C=C/c2ccccc2)cc1`, the GI50 was 25 nM and the TGI was found to be 90.8 nM.

For the compound `O=C(N/N=C/c1ccc(N(CCCl)CCCl)cc1)c1ccc(C(=O)N/N=C/c2ccc(N(CCCl)CCCl)cc2)cc1`, the GI50 is 1600 nM and the TGI was found to be 80600 nM.

Consider `NC1=C(O)C(=O)C(c2c[nH]c3ccc(OCc4ccccc4)cc23)O1` (configuration not stated), for which the GI50 was above 100000 nM and the TGI was above 100000 nM.

Turning to `CNC(=O)c1cc(-c2ccc(F)cc2)cc(-c2ccc(S(=O)(=O)N3CCCC3)cc2)c1N`, the GI50 is 5480 nM and the TGI was above 25000 nM.

As for `N=C(N)c1ccc(-c2ccc(-c3ccc(Cl)cc3Cl)s2)nc1`, the GI50 was 1720 nM and the TGI came out at 3410 nM.

With `CCCCCCCCc1cc(O)ccc1O`, the GI50 is 11300 nM and the TGI was found to be 28600 nM.

`CNc1nc(-c2ccc3c(N)n[nH]c3c2)cc(N2C[C@@H](C(=O)NC3CCCCC3)CC[C@H]2C)n1`: the GI50 was 270 nM and the TGI worked out at 2440 nM.
